The values below come from PMC6106730, “The hemicellulose-degrading enzyme system of the thermophilic bacterium Clostridium stercorarium: comparative characterisation and addition of new hemicellulolytic glycoside hydrolases” (Biotechnology for Biofuels, 2018).

One test addresses T1, Xyn10D (Thermoclostridium stercorarium, UniProt L7VM99).
T1 construct: gene Cst_c07550; no signal peptide predicted; C-terminal His6 tag, pET-24c(+), E. coli BL21 Star; IMAC and heat step
Briefly: HPAEC-PAD of hydrolysis products. The conditions noted are these: 20 mg/L oligosaccharide, 2 mg/L enzyme, overnight, 60 °C, pH 6.5. Format: biochemical.

The target in a further test is T2, Xyn105F (Thermoclostridium stercorarium, UniProt L7VMZ8).
T2 construct: gene Cst_c10410; no signal peptide predicted; C-terminal His6 tag, pET-24c(+), E. coli BL21 Star; IMAC and heat step
T2 sequence (L7VMZ8 entry or part of it): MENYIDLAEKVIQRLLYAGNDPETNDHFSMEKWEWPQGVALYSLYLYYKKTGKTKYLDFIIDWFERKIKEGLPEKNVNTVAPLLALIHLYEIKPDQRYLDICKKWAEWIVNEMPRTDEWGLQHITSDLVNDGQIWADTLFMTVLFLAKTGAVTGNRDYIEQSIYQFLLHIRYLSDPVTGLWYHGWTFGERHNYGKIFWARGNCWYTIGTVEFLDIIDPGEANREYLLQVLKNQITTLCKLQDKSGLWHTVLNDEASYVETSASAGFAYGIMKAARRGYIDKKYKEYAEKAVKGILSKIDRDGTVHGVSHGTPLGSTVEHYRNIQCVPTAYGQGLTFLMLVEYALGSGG
Briefly: HPAEC-PAD of hydrolysis products. Conditions: 20 mg/L oligosaccharide, 2 mg/L enzyme, overnight, 60 °C, pH 6.5. The class given is biochemical.

T1 sequence (L7VM99 entry or part of it): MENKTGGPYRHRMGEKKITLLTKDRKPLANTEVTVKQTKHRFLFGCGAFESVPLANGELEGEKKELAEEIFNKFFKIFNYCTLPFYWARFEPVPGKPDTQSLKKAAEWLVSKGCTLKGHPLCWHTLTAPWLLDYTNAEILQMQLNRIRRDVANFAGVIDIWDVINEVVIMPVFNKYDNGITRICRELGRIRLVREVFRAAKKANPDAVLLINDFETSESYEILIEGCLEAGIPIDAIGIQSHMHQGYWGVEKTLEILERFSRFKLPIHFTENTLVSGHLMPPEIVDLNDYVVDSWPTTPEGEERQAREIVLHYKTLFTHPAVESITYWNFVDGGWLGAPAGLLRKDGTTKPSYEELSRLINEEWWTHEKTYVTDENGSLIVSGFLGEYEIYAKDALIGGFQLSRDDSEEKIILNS

Consider `OC1OC[C@@H](O[C@@H]2OC[C@@H](O[C@@H]3OC[C@@H](O[C@@H]4OC[C@@H](O[C@@H]5OC[C@@H](O)[C@H](O)[C@H]5O)[C@H](O)[C@H]4O)[C@H](O)[C@H]3O)[C@H](O)[C@H]2O)[C@H](O)[C@H]1O` (some centres unmarked) [X5, xylopentaose], for which the “HPAEC-PAD of hydrolysis products” value on Xyn10D was “All five xylanases degraded xylopentaose first to xylotriose and xylobiose”; at Xyn105F, “Xyn105F was also active on xylopentaose, releasing xylose and xylobiose”.
